Laboratory results taken from patent US7669997B2, “Ink-jet textile printing method” (Konica Minolta Holdings, Inc., priority 2004, dated 2010).

Experiment: pKa (acid dissociation constant) of dispersing agents and acids
Assay type: physicochemical
Settings: acid of pretreatment solution
Description: The pKa value, as described in the present invention, is also called an acid dissociation constant, which is detailed, for example, in Buichi Sakaguchi and Keihei Ueno, Kinzoku Chelates [III] (Metal Chelates [III]), Nanko Do, which describes pKa values of acidic dissociating groups. Further, it is possible to determine the pKa of compounds, which are not described in the above reference, employing conventional methods. For example, it is possible to determine the pKa employing the method described, for example, in Jikken Kagaku Koza 5 Netsuteki Sokutei oyobi Heiko (Experimental Chemistry Lecture 5 Thermal Measurements and Equilibrium) page 460, edited by Nihon Kagaku Kai, Maruzen Co., Ltd.

## O=C(O)/C=C\C(=O)O [maleic acid]
First listed pKa value
  pKa: < 2
Second listed pKa value
  pKa: 5.8
